Experiment [1] has as its system HIV1 RES056 reverse transcriptase K103N/Y181C double mutant (virus infecting MT4 cells). The experiment is described as follows: Inhibition of HIV1 RES056 reverse transcriptase K103N/Y181C double mutant infected in human MT4 cells assessed as protection against virus-induced cytotoxicity by MTT assay. For orientation: Tetrazolium dyes change colour on reduction, which living cells bring about.

The subject of experiment [2] is wild-type HIV1 3B reverse transcriptase (virus infecting MT4 cells). The experiment is described as follows: Inhibition of wild-type HIV1 3B reverse transcriptase infected in human MT4 cells assessed as protection against virus-induced cytotoxicity by MTT assay.
Experiment [3] in a line: Inhibition of HIV1 reverse transcriptase K103N mutant infected in human MT4 cells assessed as protection against virus-induced cytotoxicity by MTT assay.
Experiment [4] in a line: Inhibition of HIV1 reverse transcriptase E138K mutant infected in human MT4 cells assessed as protection against virus-induced cytotoxicity by MTT assay.
Experiment [5] in a line: Inhibition of HIV1 reverse transcriptase F227L/V106A double mutant infected in human MT4 cells assessed as protection against virus-induced cytotoxicity by MTT assay.
Experiment [6] can be described thus: Inhibition of HIV1 reverse transcriptase Y181C mutant infected in human MT4 cells assessed as protection against virus-induced cytotoxicity by MTT assay.
Experiment [7] in a line: Inhibition of HIV1 reverse transcriptase L100I mutant infected in human MT4 cells assessed as protection against virus-induced cytotoxicity by MTT assay.
A short description of experiment [8]: Inhibition of HIV1 reverse transcriptase Y188L mutant infected in human MT4 cells assessed as protection against virus-induced cytotoxicity by MTT assay.

Bounds are passed on as bounds.

In general, EC50 refers to the concentration that produces a half-maximal response.

On to `Cc1cc(C#N)cc(C)c1Oc1nc(Nc2ccc(C#N)cc2)nc(N)c1Br`, for which the EC50 came out at 0.034 µM in experiment [1] and 0.004 µM in experiment [2].
As for `Cc1cc(C#N)cc(C)c1Oc1nc(NC2CCN(Cc3cn(S(C)(=O)=O)cn3)CC2)nc2ccsc12`, the EC50 is 2.7 µM in experiment [1], 0.0045 µM in experiment [3], 0.0057 µM in experiment [2] and 0.013 µM in experiment [4].
Regarding `Cc1cc(C#N)cc(C)c1Oc1nc(NC2CCN(Cc3ccc(S(N)(=O)=O)cc3)CC2)nc2ccn(COCc3ccccc3)c12`, the EC50 in experiment [1] was found to be 0.484 µM; in experiment [2] it was 0.0095 µM.
The like results for `Cc1cc(C#N)cc(C)c1Oc1nc(NC2CCN(Cc3ccc(S(C)(=O)=O)cc3)CC2)nc2ccn(COCc3ccccc3)c12` were, in that order, 0.547 µM and 0.026 µM.
Turning to `Cc1cc(C#N)cc(C)c1Oc1nc(NC2CCN(Cc3ccc(C(N)=O)cc3)CC2)nc2ccn(COCc3ccccc3)c12`, the concentration giving a half-maximal response (EC50) in experiment [1] stood at 0.567 µM; in experiment [2], 0.036 µM.
Turning to `Cc1cc(C#N)cc(C)c1Oc1nc(NC2CCN(Cc3ccco3)CC2)nc2ccsc12`, the EC50 in experiment [1] was more than 272 µM; in experiment [2], 0.0036 µM; in experiment [4] it was 0.0088 µM.
Regarding `Cc1cc(C#N)cc(C)c1Oc1nc(NC2CCN(Cc3cc(=O)[nH]c(=O)[nH]3)CC2)nc2ccsc12`, the EC50 in experiment [1] was found to be 8.97 µM; in experiment [3], 0.0061 µM; in experiment [2], 0.0072 µM; in experiment [4], 0.007 µM.
`Cc1cc(C#N)cc(C)c1Oc1nc(NC2CCN(Cc3ccc(S(N)(=O)=O)cc3)CC2)nc2cc[nH]c12`: the EC50 amounted to 0.018 µM in experiment [5]; 0.0048 µM in experiment [6]; 0.085 µM in experiment [1]; 0.001 µM in experiment [3]; 0.0024 µM in experiment [2]; 0.0042 µM in experiment [7]. Also, the EC50 was 0.004 µM in experiment [4] and 0.0072 µM in experiment [8].
Take `Cc1cc(C#N)cc(C)c1Oc1nc(NC2CCN(Cc3ccc(C(N)=O)cc3)CC2)nc2cc[nH]c12`: the EC50 in experiment [1] is 0.113 µM; in experiment [2], 0.0057 µM.
The like results for `Cc1cc(C#N)cc(C)c1Oc1nc(NC2CCN(Cc3n[nH]c(=O)n3C)CC2)nc2ccsc12` were, in that order, 17.1 µM and 0.014 µM.
In the case of `Cc1cc(C#N)cc(C)c1Oc1nc(NC2CCN(Cc3c[nH]cn3)CC2)nc2ccsc12`, the EC50 in experiment [1] came out at 1.17 µM; in experiment [3] it was 0.006 µM; in experiment [2], 0.0055 µM; in experiment [4], 0.012 µM.
For `Cc1cc(C#N)cc(C)c1Nc1nc(NC2CCN(Cc3ccc(S(N)(=O)=O)cc3)CC2)nc2ccsc12`, the EC50 in experiment [1] was found to be 0.031 µM; in experiment [2] it was 0.0014 µM.
The like results for `Cc1cc(C#Cc2cccnc2)cc(C)c1Oc1nc(NC2CCN(Cc3ccc(S(N)(=O)=O)cc3)CC2)nc2ccsc12` were, in that order, 0.153 µM and 0.041 µM.
With `Cc1cc(C#Cc2ccccn2)cc(C)c1Oc1nc(NC2CCN(Cc3ccc(S(N)(=O)=O)cc3)CC2)nc2ccsc12`, the EC50 in experiment [1] came to 0.888 µM; in experiment [2], 0.009 µM.
The like results for `Cc1cc(C#N)cc(C)c1Oc1nc(NC2CCN(Cc3ccc(C(N)=O)cc3)CC2)nc2ccn(S(=O)(=O)c3ccccc3)c12` were, in that order, 2.29 µM and 0.017 µM.
In the case of `Cc1cc(C#N)cc(C)c1Oc1nc(NC2CCN(Cc3ccc(N4CCCC4)cc3)CC2)nc2ccsc12`, the EC50 was more than 4.36 µM in experiment [1] and 0.033 µM in experiment [2].
The like results for `Cc1cc(C#Cc2ccncc2)cc(C)c1Oc1nc(NC2CCN(Cc3ccc(S(N)(=O)=O)cc3)CC2)nc2ccsc12` were, in that order, 0.223 µM and 0.034 µM.
The like results for `Cc1cc(C#N)cc(C)c1Oc1nc(NC2CCN(Cc3ccc(S(C)(=O)=O)cc3)CC2)nc2ccn(S(=O)(=O)c3ccccc3)c12` were, in that order, 0.187 µM and 0.031 µM.
The like results for `Cc1cc(C#N)cc(C)c1Oc1nc(NC2CCN(Cc3ccc(S(N)(=O)=O)cc3)CC2)nc2ccn(S(=O)(=O)c3ccccc3)c12` were, in that order, 0.11 µM and 0.0089 µM.
Take `Cc1cc(/C=C/C#N)cc(C)c1Nc1nc(NC2CCN(Cc3ccc(S(N)(=O)=O)cc3)CC2)nc2ccsc12`: the EC50 turned out to be 0.005 µM in experiment [1] and 0.0012 µM in experiment [2].
The like results for `Cc1cc(C#N)cc(C)c1Oc1nc(NC2CCN(Cc3ccc(S(C)(=O)=O)cc3)CC2)nc2cc[nH]c12` were, in that order, 0.116 µM and 0.0059 µM.
The like results for `Cc1cn([C@H]2C[C@H](N=[N+]=[N-])[C@@H](CO)O2)c(=O)[nH]c1=O` [1-((2R,4S,5S)-4-Azido-5-hydroxymethyl-tetrahydro-furan-2-yl)-5-methyl-1H-pyrimidine-2,4-dione] were, in that order, 0.017 µM and 0.007 µM.
The like results for `Cc1ccnc2c1NC(=O)c1cccnc1N2C1CC1` [BI-RG-587] were, in that order, more than 15 µM and 0.124 µM.

(Values after BindingDB's records for doi:10.1021/acsmedchemlett.8b00054 (Shandong University, 2018).)
